US9993494B2, “Compositions and methods for treating fibrotic disease” (eFFECTOR Therapeutics, Inc., priority 2014, dated 2018)

Tested on: normal human lung fibroblasts
Assay: Ribosomal profiling: translational efficiency in TGFβ-treated fibroblasts
Format: cell-based
Settings: TGFβ-treated fibroblasts
Procedure: Ribosomal profiling allows for measurement of changes in transcription and translation on a genome-wide basis accompanying TGFβ-dependent transformation of fibroblasts to myofibroblasts. Ribosomal profiles of the TGFβ-treated fibroblasts from Example 1 (about 6×10^6 cells/10 cm plate) were prepared and analyzed for changes in translational efficiencies with respect to potential disease-associated cellular changes accompanying this TGFβ-induced transformation.
Briefly, cells were washed with cold PBS supplemented with cycloheximide and lysed with 1× mammalian cell lysis buffer for 10 minutes on ice. Lysates were clarified by centrifugation for 10 minutes at 14,000 rpm and supernatants were collected. Cell lysates were processed to generate ribosomal protected fragments and total mRNA according to the instructions included with the ARTseq Ribosome Profiling Kit (Illumina, San Diego, Calif.). Sequencing of total RNA (RNA) and of ribosome-protected fragments of RNA (RPF) was carried out using RNA-Seq methodology according to the manufacturer's instructions (Illumina). To analyze the ribosomal profiles, RNA-Seq reads were processed with tools from the FASTX-Toolkit (fastq_quality_trimmer, fastx_clipper and fastx_trimmer). Unprocessed and processed reads were evaluated for a variety of quality measures using FastQC, and processed reads were mapped to the human genome using TopHat (see, e.g., Trapnell et al., Bioinformatics 25:1105, 2009). Gene-by-gene assessment of the number of fragments strictly and uniquely mapping to the coding region of each gene was conducted using HTSeq-count, a component of the HTSeq package. […] Genes with low counts in either RPF or RNA were excluded from differential analyses. Pathway and network analyses of differential data were conducted using Ingenuity Pathway Analysis (IPA).

COC(=O)[C@H]1[C@@H](O)[C@@]2(O)c3c(OC)cc(O[C@@H]4O[C@@H]([C@H](O)CO)CO[C@H]4OC)cc3O[C@@]2(c2ccc(OC)cc2)[C@@H]1c1ccccc1 [Silvestrol] was tested. Which “renormalizing the translational profile of DNASE1L1” value (ENSG00000013563) did it give?
Its value is “+ (+ = 0.9 to 1.5)”.

And the “renormalizing the translational profile of KITLG” value (ENSG00000049130)?
The value was “− (− = <0.9)”.

What about the “renormalizing the translational profile of ADAMTS6” value (ENSG00000049192) of the same molecule?
Its value is “− (− = <0.9)”.

What about the “renormalizing the translational profile of LETMD1” value (ENSG00000050426) of the same molecule?
Its value is “− (− = <0.9)”.

What about the “renormalizing the translational profile of PLEKHA5” value (ENSG00000052126) of the same molecule?
Its value is “++ (++ = 1.5 to 2.0)”.

And the “renormalizing the translational profile of EIF4B” value (ENSG00000063046)?
The value was “− (− = <0.9)”.

And the “renormalizing the translational profile of RPL18” value (ENSG00000063177)?
The value was “− (− = <0.9)”.

And the “renormalizing the translational profile of HIPK2” value (ENSG00000064393)?
Its value is “− (− = <0.9)”.

What about the “renormalizing the translational profile of ASPM” value (ENSG00000066279) of the same molecule?
The value was “+ (+ = 0.9 to 1.5)”.

What about the “renormalizing the translational profile of RASSF1” value (ENSG00000068028) of the same molecule?
The value was “− (− = <0.9)”.

What about the “renormalizing the translational profile of PABPC1” value (ENSG00000070756) of the same molecule?
The value was “− (− = <0.9)”.

And the “renormalizing the translational profile of RPL31” value (ENSG00000071082)?
Its value is “− (− = <0.9)”.

What about the “renormalizing the translational profile of PLD1” value (ENSG00000075651) of the same molecule?
Its value is “++ (++ = 1.5 to 2.0)”.

And the “renormalizing the translational profile of EDN1” value (ENSG00000078401)?
Its value is “++ (++ = 1.5 to 2.0)”.

What about the “renormalizing the translational profile of AURKA” value (ENSG00000087586) of the same molecule?
The value was “− (− = <0.9)”.

What about the “renormalizing the translational profile of EPB41L1” value (ENSG00000088367) of the same molecule?
Its value is “+ (+ = 0.9 to 1.5)”.

What about the “renormalizing the translational profile of RPL6” value (ENSG00000089009) of the same molecule?
The value was “− (− = <0.9)”.

And the “renormalizing the translational profile of P2RX7” value (ENSG00000089041)?
Its value is “− (− = <0.9)”.

What about the “renormalizing the translational profile of KDM2B” value (ENSG00000089094) of the same molecule?
Its value is “− (− = <0.9)”.

And the “renormalizing the translational profile of RPLP0” value (ENSG00000089157)?
Its value is “− (− = <0.9)”.

And the “renormalizing the translational profile of IGBP1” value (ENSG00000089289)?
The value was “− (− = <0.9)”.

And the “renormalizing the translational profile of IRAK3” value (ENSG00000090376)?
The value was “+ (+ = 0.9 to 1.5)”.

And the “renormalizing the translational profile of PABPC4” value (ENSG00000090621)?
The value was “+ (+ = 0.9 to 1.5)”.

And the “renormalizing the translational profile of FMO2” value (ENSG00000094963)?
Its value is “− (− = <0.9)”.

And the “renormalizing the translational profile of ACOT7” value (ENSG00000097021)?
The value was “− (− = <0.9)”.

What about the “renormalizing the translational profile of ATP5D” value (ENSG00000099624) of the same molecule?
Its value is “− (− = <0.9)”.

And the “renormalizing the translational profile of LGALS1” value (ENSG00000100097)?
Its value is “− (− = <0.9)”.

What about the “renormalizing the translational profile of EIF3L” value (ENSG00000100129) of the same molecule?
The value was “− (− = <0.9)”.

What about the “renormalizing the translational profile of RPL3” value (ENSG00000100316) of the same molecule?
Its value is “− (− = <0.9)”.

What about the “renormalizing the translational profile of CEP192” value (ENSG00000101639) of the same molecule?
Its value is “+ (+ = 0.9 to 1.5)”.

And the “renormalizing the translational profile of AMMECR1” value (ENSG00000101935)?
The value was “− (− = <0.9)”.

What about the “renormalizing the translational profile of PLP2” value (ENSG00000102007) of the same molecule?
The value was “− (− = <0.9)”.

What about the “renormalizing the translational profile of EIF3E” value (ENSG00000104408) of the same molecule?
Its value is “− (− = <0.9)”.

And the “renormalizing the translational profile of EEF1D” value (ENSG00000104529)?
Its value is “− (− = <0.9)”.

And the “renormalizing the translational profile of C19orf53” value (ENSG00000104979)?
The value was “− (− = <0.9)”.

And the “renormalizing the translational profile of GLTSCR2” value (ENSG00000105373)?
The value was “− (− = <0.9)”.

What about the “renormalizing the translational profile of RAB3D” value (ENSG00000105514) of the same molecule?
The value was “− (− = <0.9)”.

What about the “renormalizing the translational profile of RPL18A” value (ENSG00000105640) of the same molecule?
Its value is “− (− = <0.9)”.

What about the “renormalizing the translational profile of COMP” value (ENSG00000105664) of the same molecule?
Its value is “− (− = <0.9)”.

What about the “renormalizing the translational profile of GLCCI1” value (ENSG00000106415) of the same molecule?
The value was “+ (+ = 0.9 to 1.5)”.

And the “renormalizing the translational profile of GDF10” value (ENSG00000107623)?
The value was “− (− = <0.9)”.

What about the “renormalizing the translational profile of RPL28” value (ENSG00000108107) of the same molecule?
Its value is “− (− = <0.9)”.

And the “renormalizing the translational profile of RPL19” value (ENSG00000108298)?
The value was “− (− = <0.9)”.

What about the “renormalizing the translational profile of RASD1” value (ENSG00000108551) of the same molecule?
Its value is “+++ (+++ = >2.0)”.

And the “renormalizing the translational profile of NAT9” value (ENSG00000109065)?
Its value is “− (− = <0.9)”.

What about the “renormalizing the translational profile of RPL34” value (ENSG00000109475) of the same molecule?
Its value is “− (− = <0.9)”.

And the “renormalizing the translational profile of CRYAB” value (ENSG00000109846)?
Its value is “− (− = <0.9)”.

What about the “renormalizing the translational profile of GAPDH” value (ENSG00000111640) of the same molecule?
The value was “− (− = <0.9)”.

What about the “renormalizing the translational profile of C12orf57” value (ENSG00000111678) of the same molecule?
The value was “− (− = <0.9)”.

And the “renormalizing the translational profile of MDFI” value (ENSG00000112559)?
The value was “− (− = <0.9)”.

What about the “renormalizing the translational profile of HBEGF” value (ENSG00000113070) of the same molecule?
The value was “+ (+ = 0.9 to 1.5)”.

And the “renormalizing the translational profile of RPL24” value (ENSG00000114391)?
Its value is “− (− = <0.9)”.

And the “renormalizing the translational profile of EEF1B2” value (ENSG00000114942)?
Its value is “− (− = <0.9)”.

What about the “renormalizing the translational profile of IFIH1” value (ENSG00000115267) of the same molecule?
The value was “− (− = <0.9)”.

What about the “renormalizing the translational profile of DPH5” value (ENSG00000117543) of the same molecule?
Its value is “− (− = <0.9)”.

And the “renormalizing the translational profile of PPL” value (ENSG00000118898)?
The value was “− (− = <0.9)”.

And the “renormalizing the translational profile of PLEKHG1” value (ENSG00000120278)?
The value was “− (− = <0.9)”.

What about the “renormalizing the translational profile of LIAS” value (ENSG00000121897) of the same molecule?
The value was “− (− = <0.9)”.

What about the “renormalizing the translational profile of GPSM2” value (ENSG00000121957) of the same molecule?
Its value is “− (− = <0.9)”.

What about the “renormalizing the translational profile of RPL21” value (ENSG00000122026) of the same molecule?
The value was “− (− = <0.9)”.

What about the “renormalizing the translational profile of RPL5” value (ENSG00000122406) of the same molecule?
Its value is “− (− = <0.9)”.

And the “renormalizing the translational profile of INHBA” value (ENSG00000122641)?
The value was “+ (+ = 0.9 to 1.5)”.

And the “renormalizing the translational profile of CIT” value (ENSG00000122966)?
The value was “+++ (+++ = >2.0)”.

What about the “renormalizing the translational profile of RPL23” value (ENSG00000125691) of the same molecule?
Its value is “− (− = <0.9)”.
